One may read the IC90 as the concentration at which the effect reaches the 90% level.

The record followed here is patent US12421211B2, “Heterocyclic compounds” (Hoffmann-La Roche Inc., priority 2021, dated 2025).

Where a name gives a salt, the structure may show the parent alone.

For one experiment, the system named is Acinetobacter baumannii ATCC17961. Description: Antimicrobial susceptibility testing: 90% growth inhibitory concentration (IC90) determination. The settings on record: Acinetobacter baumannii, ATCC17961, 16 h, 90% growth inhibitory concentration, Acinetobacter baumannii ATCC17961, Iso-Sensitest broth, OD 600 nm over 16 h; read-out: ATCC 17961 IC90. Format: cell-based. Put shortly: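 Growth inhibition derived in log phase from OD600 kinetics (every 20 minutes, 16h, 35±2° C) of ATCC17961 in Iso-Sensitest medium, inoculum ~5×10^5 CFU/ml. Compounds tested as twofold series, 10 points (e.g. 50 to 0.097 μM final); IC90 and IC50 reported.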
For the compound `Cn1c(-c2ccc(-c3cn[nH]c3)cc2)cnc1C(=O)Nc1ccc(C(=O)N2CCN(C(=O)C3CCNCC3)CC2)c(Cl)c1` [Example E23, N-[3-chloro-4-[4-(piperidine-4-carbonyl)piperazine-1-carbonyl]phenyl]-1-methyl-5-[4-(1H-pyrazol-4-yl)phenyl] imidazole-2-carboxamide], the IC90 came to 140 nM.

For `Cc1c(-c2ccc(-c3cnc(C(=O)Nc4ccc(C(=O)N5CCN(C(=O)C6CC[N+](C)(C)CC6)CC5)c(Cl)c4)n3C)c(F)c2F)cnn1CCNC(=O)c1ccccn1` [Example H1, N-[2-[4-[4-[2-[[3-chloro-4-[4-(1,1-dimethylpiperidin-1-ium-4-carbonyl)piperazine-1-carbonyl]phenyl]carbamoyl]-3-methyl-imidazol-4-yl]-2,3-difluoro-phenyl]-5-methyl-pyrazol-1-yl]ethyl]pyridine-2-carboxamide formate], the IC90 was determined as 150 nM.

As for `Cc1nn(CC(=O)Nc2ncccn2)cc1-c1ccc(-c2cnc(C(=O)Nc3ccc(C(=O)N4CCN(C(=O)C5CC[N+](C)(C)CC5)CC4)c(Cl)c3)n2C)c(F)c1F` [Example G16, N-[3-chloro-4-[4-(1,1-dimethylpiperidin-1-ium-4-carbonyl)piperazine-1-carbonyl]phenyl]-5-[2,3-difluoro-4-[3-methyl-1-[2-oxo-2-(pyrimidin-2-ylamino)ethyl]pyrazol-4-yl]phenyl]-1-methyl-imidazole-2-carboxamide; formate], the IC90 stood at 1100 nM.

Regarding `COCCn1cc(-c2ccc(-c3cnc(C(=O)Nc4ccc(C(=O)N5CCN(C(=O)C6CC[N+](C)(C)CC6O)CC5)c(Cl)c4)n3C)c(F)c2F)c(C)n1` (stereo not drawn) [Example D2, N-[3-chloro-4-[4-(3-hydroxy-1,1-dimethyl-piperidin-1-ium-4-carbonyl)piperazine-1-carbonyl]phenyl]-5-[2,3-difluoro-4-[1-(2-methoxyethyl)-3-methyl-pyrazol-4-yl]phenyl]-1-methyl-imidazole-2-carboxamide; formate], the IC90 was 210 nM.

For the compound `COc1ccccc1-c1[nH]ncc1-c1ccc(-c2cnc(C(=O)Nc3ccc(C(=O)N4CCN(C(=O)C5CC[N+](C)(C)CC5)CC4)c(Cl)c3)n2C)c(F)c1F` [Example I4, N-[3-chloro-4-[4-(1,1-dimethylpiperidin-1-ium-4-carbonyl)piperazine-1-carbonyl]phenyl]-5-[2,3-difluoro-4-[5-(2-methoxyphenyl)-1H-pyrazol-4-yl]phenyl]-1-methyl-imidazole-2-carboxamide; formate], the IC90 was found to be 1500 nM.

As to `COCCn1cc(-c2ccc(-c3cnc(C(=O)Nc4ccc(C(=O)N5CCN(C(=O)[C@@H]6CC(CO)C[N+]6(C)C)CC5)c(Cl)c4)n3C)c(F)c2F)c(C)n1` (stereo partly drawn) [Example A12, N-[3-chloro-4-[4-[(2S)-4-(hydroxymethyl)-1,1-dimethyl-pyrrolidin-1-ium-2-carbonyl]piperazine-1-carbonyl]phenyl]-5-[2,3-difluoro-4-[1-(2-methoxyethyl)-3-methyl-pyrazol-4-yl]phenyl]-1-methyl-imidazole-2-carboxamide; formate], the IC90 was found to be 210 nM.

Take `Cn1c(-c2ccc(-c3cn[nH]c3C3CCOCC3)c(F)c2F)cnc1C(=O)Nc1ccc(C(=O)N2CCN(C(=O)C3CC[N+](C)(C)CC3)CC2)c(Cl)c1` [Example I6, N-[3-chloro-4-[4-(1,1-dimethylpiperidin-1-ium-4-carbonyl)piperazine-1-carbonyl]phenyl]-5-[2,3-difluoro-4-(5-tetrahydropyran-4-yl-1H-pyrazol-4-yl)phenyl]-1-methyl-imidazole-2-carboxamide; formate]: the IC90 came out at 820 nM.

As for `COCCn1ncc(-c2ccc(-c3cnc(C(=O)Nc4ccc(C(=O)N5CCC(C(=O)N6CC[N+](CC(=O)O)(CC7CNC7)CC6)CC5)c(Cl)c4)n3C)c(F)c2F)c1C` [Example B22, 2-[1-(azetidin-3-ylmethyl)-4-[1-[2-chloro-4-[[5-[2,3-difluoro-4-[1-(2-methoxyethyl)-5-methyl-pyrazol-4-yl]phenyl]-1-methyl-imidazole-2-carbonyl]amino]benzoyl]piperidine-4-carbonyl]piperazin-1-ium-1-yl]acetic acid; formate], the IC90 came out at 330 nM.

On to `COCCn1ncc(-c2ccc(-c3cnc(C(=O)Nc4ccc(C(=O)N5CCN(C(=O)CCCC(=O)N6CC[N+](CC(=O)O)(CC7CNC7)CC6)CC5)c(Cl)c4)n3C)c(F)c2F)c1C` [Example P6, 2-[1-(azetidin-3-ylmethyl)-4-[5-[4-[2-chloro-4-[[5-[2,3-difluoro-4-[1-(2-methoxyethyl)-5-methyl-pyrazol-4-yl]phenyl]-1-methyl-imidazole-2-carbonyl]amino]benzoyl]piperazino]-5-keto-pentanoyl]piperazin-1-ium-1-yl]acetic acid; 1:1 formate], for which the IC90 was found to be 310 nM.

Take `COCCn1nc(C)c(-c2ccc(-c3cnc(C(=O)Nc4ccc(C(=O)N5CCN(C(=O)[C@@H]6C[C@@H](O)C[N+]6(C)C)CC5)c(Cl)c4)n3C)c(F)c2F)c1C` (racemic) [Example D3, N-[3-chloro-4-[4-[(2S,4R)-4-hydroxy-1,1-dimethyl-pyrrolidin-1-ium-2-carbonyl]piperazine-1-carbonyl]phenyl]-5-[2,3-difluoro-4-[1-(2-methoxyethyl)-3,5-dimethyl-pyrazol-4-yl]phenyl]-1-methyl-imidazole-2-carboxamide; formate]: the IC90 came out at 390 nM.

`COCCn1nc(C)c(-c2ccc(-c3cnc(C(=O)Nc4ccc(C(=O)NC5[C@H]6CN(C(=O)N[C@@H]7C[N+](C)(C)C[C@H]7O)C[C@@H]56)c(Cl)c4)n3C)c(F)c2F)c1C` (mixture of isomers) [Example F60, rac-(1S,5R)-6-[[2-chloro-4-[[5-[2,3-difluoro-4-[1-(2-methoxyethyl)-3,5-dimethyl-pyrazol-4-yl]phenyl]-1-methyl-imidazole-2-carbonyl]amino]benzoyl]amino]-N-[(3R,4R)-4-hydroxy-1,1-dimethyl-pyrrolidin-1-ium-3-yl]-3-azabicyclo[3.1.0]hexane-3-carboxamide; formate]: the IC90 amounted to 150 nM.

As to `Cc1n[nH]cc1-c1ccc(-c2cnc(C(=O)Nc3ccc(C(=O)N4CCN(C(=O)C[N+](C)(C)C)CC4)c(Cl)c3)n2C)c(F)c1F` [Example D35, [2-[4-[2-chloro-4-[[5-[2,3-difluoro-4-(3-methyl-1H-pyrazol-4-yl)phenyl]-1-methyl-imidazole-2-carbonyl]amino]benzoyl]piperazin-1-yl]-2-oxo-ethyl]-trimethyl-ammonium; formate], the IC90 was found to be 170 nM.

In the case of `Cc1c(-c2ccc(-c3cnc(C(=O)Nc4ccc(C(=O)N5CCN(C(=O)C6CC[N+](C)(C)CC6)CC5)c(Cl)c4)n3C)c(F)c2F)cnn1CC(=O)NC(C)(C)C` [Example G18, 5-[4-[1-[2-(tert-butylamino)-2-oxo-ethyl]-5-methyl-pyrazol-4-yl]-2,3-difluoro-phenyl]-N-[3-chloro-4-[4-(1,1-dimethylpiperidin-1-ium-4-carbonyl)piperazine-1-carbonyl]phenyl]-1-methyl-imidazole-2-carboxamide; formate], the IC90 was determined as 510 nM.

As to `COCCn1ncc(-c2ccc(-c3cnc(C(=O)Nc4ccc(C(=O)N[C@H]5[C@@H]6CN(C(=O)N[C@@H]7C[N+](C)(C)C[C@H]7O)C[C@@H]65)c(Cl)c4)n3C)c(F)c2F)c1C` [Example F66, (1S,5R)-6-[[2-chloro-4-[[5-[2,3-difluoro-4-[1-(2-methoxyethyl)-5-methyl-pyrazol-4-yl]phenyl]-1-methyl-imidazole-2-carbonyl]amino]benzoyl]amino]-N-[(3R,4R)-4-hydroxy-1,1-dimethyl-pyrrolidin-1-ium-3-yl]-3-azabicyclo[3.1.0]hexane-3-carboxamide; formate], the IC90 amounted to 29 nM.

Take `Cc1c(-c2ccc(-c3cnc(C(=O)Nc4ccc(C(=O)N5CCN(C(=O)[C@@H]6C[C@@H](O)C[N+]6(C)C)CC5)c(Cl)c4)n3C)c(F)c2F)cnn1CCCO` [Example F17, N-[3-chloro-4-[4-[(2S,4R)-4-hydroxy-1,1-dimethyl-pyrrolidin-1-ium-2-carbonyl]piperazine-1-carbonyl]phenyl]-5-[2,3-difluoro-4-[1-(3-hydroxypropyl)-5-methyl-pyrazol-4-yl]phenyl]-1-methyl-imidazole-2-carboxamide; formate]: the IC90 turned out to be 270 nM.

The same experiment, now with this note: Acinetobacter baumannii, ATCC17961, 16 h, read-out: ATCC 17961 IC90.
Turning to `COCCn1cc(-c2ccc(-c3cnc(C(=O)Nc4ccc(C(=O)N5CCN(C(=O)C[N+]6(C)CC[C@@H](O)C6)CC5)c(Cl)c4)n3C)c(F)c2F)c(C)n1` (stereo partly drawn) [Example C8, N-[3-chloro-4-[4-[2-[(3R)-3-hydroxy-1-methyl-pyrrolidin-1-ium-1-yl]acetyl]piperazine-1-carbonyl]phenyl]-5-[2,3-difluoro-4-[1-(2-methoxyethyl)-3-methyl-pyrazol-4-yl]phenyl]-1-methyl-imidazole-2-carboxamide; formate], the IC90 came out at 210 nM.

On to `COCCn1ncc(-c2ccc(-c3cnc(C(=O)Nc4ccc(C(=O)N5CCN(C(=O)C6CC[N+](C)(CC(F)F)CC6)CC5)c(Cl)c4)n3C)c(F)c2F)c1C` (stereo not drawn) [Example B32, N-[3-chloro-4-[4-[1-(2,2-difluoroethyl)-1-methyl-piperidin-1-ium-4-carbonyl]piperazine-1-carbonyl]phenyl]-5-[2,3-difluoro-4-[1-(2-methoxyethyl)-5-methyl-pyrazol-4-yl]phenyl]-1-methyl-imidazole-2-carboxamide; 2,2,2-trifluoroacetate], for which the IC90 was found to be 58 nM.

Regarding `COCCn1nc(C)c(-c2ccc(-c3cnc(C(=O)Nc4ccc(C(=O)N5CCN(C(=O)C6CC[N+](C)(CCOC)CC6)CC5)c(Cl)c4)n3C)c(F)c2F)c1C` (stereo not drawn) [Example B9, N-[3-chloro-4-[4-[1-(2-methoxyethyl)-1-methyl-piperidin-1-ium-4-carbonyl]piperazine-1-carbonyl]phenyl]-5-[2,3-difluoro-4-[1-(2-methoxyethyl)-3,5-dimethyl-pyrazol-4-yl]phenyl]-1-methyl-imidazole-2-carboxamide; formate], the IC90 turned out to be 510 nM.
